Source: US12590099B2, “Inhibitors of histone deacetylase useful for the treatment or prevention of HIV infection” (Merck Sharp & Dohme LLC, priority 2018, dated 2026)

Key:
Type in all cases: biochemical
[1] = molecular target: T1, Recombinant human HDAC3/SMRT heterodimer (Homo sapiens, UniProt O15379); assay: Human HDAC enzyme inhibitor Fluor-de-Lys assay, HDAC3/SMRT
T1 construct: FLAG (C); made in house

HDAC6 = molecular target: T2, HDAC6 (Homo sapiens, UniProt Q9UBN7); assay: Human HDAC enzyme inhibitor Fluor-de-Lys assay, HDAC6
T2 sequence (Q9UBN7 1-1215): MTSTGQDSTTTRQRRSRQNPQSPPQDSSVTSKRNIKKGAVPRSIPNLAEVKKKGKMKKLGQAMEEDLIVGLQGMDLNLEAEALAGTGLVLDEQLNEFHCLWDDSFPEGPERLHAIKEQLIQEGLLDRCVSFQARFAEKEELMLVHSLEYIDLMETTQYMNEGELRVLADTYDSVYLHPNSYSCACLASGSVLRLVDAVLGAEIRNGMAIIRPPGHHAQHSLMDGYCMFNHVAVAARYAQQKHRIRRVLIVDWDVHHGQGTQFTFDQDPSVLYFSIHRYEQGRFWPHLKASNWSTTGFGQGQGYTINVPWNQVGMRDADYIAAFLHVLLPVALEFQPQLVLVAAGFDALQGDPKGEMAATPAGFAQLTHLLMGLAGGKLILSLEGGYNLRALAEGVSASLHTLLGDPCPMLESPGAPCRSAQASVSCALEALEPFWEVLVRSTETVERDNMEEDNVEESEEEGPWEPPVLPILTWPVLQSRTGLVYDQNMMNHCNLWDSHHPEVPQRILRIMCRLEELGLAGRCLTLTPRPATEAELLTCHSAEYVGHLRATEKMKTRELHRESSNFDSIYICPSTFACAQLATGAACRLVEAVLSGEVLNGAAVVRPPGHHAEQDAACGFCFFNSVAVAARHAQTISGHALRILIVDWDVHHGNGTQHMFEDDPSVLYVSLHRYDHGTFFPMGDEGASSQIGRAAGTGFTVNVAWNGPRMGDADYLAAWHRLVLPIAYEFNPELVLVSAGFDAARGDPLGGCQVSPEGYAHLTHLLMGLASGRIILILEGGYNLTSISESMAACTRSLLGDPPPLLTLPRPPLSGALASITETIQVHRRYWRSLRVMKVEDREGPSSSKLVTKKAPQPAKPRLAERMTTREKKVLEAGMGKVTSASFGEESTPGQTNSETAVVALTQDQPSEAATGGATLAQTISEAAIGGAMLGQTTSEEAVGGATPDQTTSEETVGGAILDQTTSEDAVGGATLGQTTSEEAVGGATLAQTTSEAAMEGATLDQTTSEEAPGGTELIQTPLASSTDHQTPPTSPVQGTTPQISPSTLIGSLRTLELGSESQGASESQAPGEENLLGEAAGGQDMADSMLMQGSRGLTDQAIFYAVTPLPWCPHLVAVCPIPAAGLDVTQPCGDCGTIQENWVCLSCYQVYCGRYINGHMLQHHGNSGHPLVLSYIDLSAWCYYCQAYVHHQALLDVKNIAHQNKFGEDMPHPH

Recombinant human HDAC8 = molecular target: T3, Recombinant human HDAC8 (Homo sapiens, UniProt Q9BY41); assay: Human HDAC enzyme inhibitor Fluor-de-Lys assay, HDAC8
T3 construct: purchased Enzo Life Sciences BML-SE145-0100
T3 sequence (Q9BY41 1-377): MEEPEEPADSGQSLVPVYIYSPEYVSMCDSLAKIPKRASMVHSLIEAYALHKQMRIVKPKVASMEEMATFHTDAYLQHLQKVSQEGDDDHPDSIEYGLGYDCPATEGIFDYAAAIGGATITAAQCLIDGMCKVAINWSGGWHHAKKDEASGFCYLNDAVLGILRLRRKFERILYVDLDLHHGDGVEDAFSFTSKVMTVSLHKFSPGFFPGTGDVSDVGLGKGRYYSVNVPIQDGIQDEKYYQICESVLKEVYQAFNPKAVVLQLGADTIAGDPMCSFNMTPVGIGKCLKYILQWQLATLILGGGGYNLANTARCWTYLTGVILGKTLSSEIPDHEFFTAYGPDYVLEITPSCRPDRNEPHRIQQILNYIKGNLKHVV

Recombinant human HDAC1 = molecular target: T4, Recombinant human HDAC1 (Homo sapiens, UniProt Q13547); assay: Human HDAC enzyme inhibitor Fluor-de-Lys assay, HDAC1
T4 construct: FLAG (C); made in house
T4 sequence (Q13547 whole entry): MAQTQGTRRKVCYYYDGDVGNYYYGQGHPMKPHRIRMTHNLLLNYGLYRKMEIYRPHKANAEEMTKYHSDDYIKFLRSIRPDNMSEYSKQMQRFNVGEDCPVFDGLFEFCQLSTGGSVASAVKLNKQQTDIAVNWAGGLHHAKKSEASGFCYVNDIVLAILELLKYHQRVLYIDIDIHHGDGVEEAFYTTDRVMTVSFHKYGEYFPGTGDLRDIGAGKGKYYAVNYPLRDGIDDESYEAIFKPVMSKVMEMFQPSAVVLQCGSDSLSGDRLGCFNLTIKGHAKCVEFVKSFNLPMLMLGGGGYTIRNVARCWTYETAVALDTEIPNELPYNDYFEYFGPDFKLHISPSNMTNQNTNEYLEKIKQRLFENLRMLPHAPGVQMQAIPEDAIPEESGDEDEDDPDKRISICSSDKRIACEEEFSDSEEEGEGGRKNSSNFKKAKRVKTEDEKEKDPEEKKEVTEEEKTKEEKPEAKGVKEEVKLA
Procedure: (§1) Human HDAC Enzyme Inhibitor Fluor-De-Lys Assay
(§2) Recombinant human HDAC8 (BML-SE145-0100) and HDAC10 (BML-SE559-0050) enzymes, HDAC substrates BML-KI104 and BML-KI178, and HDAC developer solutions BML-KI105 and BML-KI176 were purchased from Enzo Life Sciences. […] HDAC inhibitor suberoylanilide hydroxamic acid (SAHA) was obtained from Indofine and trichostatin A (TSA) was obtained from Sigma-Aldrich.
(§3) Recombinant human HDAC1, HDAC2, and HDAC3/SMRT heterodimer were prepared by Merck Research Laboratories. […] The eluted protein was then passed over an anti-HDAC1 immunoaffinity column to remove any complexes containing HDAC1. […]
(§4) The histone deacetylase activities of HDAC1, HDAC2, HDAC3, HDAC6, and HDAC8 were measured in modified FLUOR DE LYS assays in 384-well format. In this assay, HDAC enzymes are initially incubated with an ε-acetyl (or -trifluoroacetyl)-L-lysine-containing substrate with a C-terminal amide having aminomethylcoumarin as the amine component. HDACs cleave the ε-acetyl group, rendering the resulting product susceptible to AMC cleavage by trypsin. The released AMC is then detected by its fluorescence.
(§5) The HDAC3/SMRT assay employed buffer B, consisting of 20 mM HEPES, pH 8.0, 1 mM MgCl2, 50 mM NaCl, 2.7 mM KCl, 0.05% BSA, 0.005% Tween 20, and 10 μM IP4. […] The HDAC8 assay employed buffer D, consisting of 20 mM HEPES, pH 8.0, 1 mM MgCl2, 100 mM NaCl, 20 mM KCl, 0.10% n-octyl-β-D-glucoside (Anatrace) and 0.05% BSA. All steps were performed at room temperature (23° C.). The assay was performed by pre-incubating serial dilutions of test compounds with the target HDAC prior to initiation with substrate. Each compound was titrated in a 10-point dose response, using a 1:3 fold dilution scheme, with 0.15 ul of solution added by ECH0555 to the plate, followed by the addition of 20 μl of the appropriate HDAC isoform diluted in appropriate assay buffer. […] Final conditions used for each assay were: 1. HDAC 1, 0.3 nM total enzyme, 20 μM substrate BML-KI104; 2. […] HDAC 3/SMRT, 0.3 nM total enzyme, 20 μM substrate BML-KI104; 4. […] The reactions were stopped and developed by addition of 30 ul of HDAC developer solution containing a saturating level of HDAC inhibitor as follows: 1.

Recombinant human HDAC2 = molecular target: T5, Recombinant human HDAC2 (Homo sapiens, UniProt Q92769); assay: Human HDAC enzyme inhibitor Fluor-de-Lys assay, HDAC2
T5 construct: Full length human HDAC2-FLAG was expressed in baculovirus infected Sf9 cells; FLAG (C); made in house; host or cells: Sf9 (baculovirus)
T5 sequence (Q92769 whole entry): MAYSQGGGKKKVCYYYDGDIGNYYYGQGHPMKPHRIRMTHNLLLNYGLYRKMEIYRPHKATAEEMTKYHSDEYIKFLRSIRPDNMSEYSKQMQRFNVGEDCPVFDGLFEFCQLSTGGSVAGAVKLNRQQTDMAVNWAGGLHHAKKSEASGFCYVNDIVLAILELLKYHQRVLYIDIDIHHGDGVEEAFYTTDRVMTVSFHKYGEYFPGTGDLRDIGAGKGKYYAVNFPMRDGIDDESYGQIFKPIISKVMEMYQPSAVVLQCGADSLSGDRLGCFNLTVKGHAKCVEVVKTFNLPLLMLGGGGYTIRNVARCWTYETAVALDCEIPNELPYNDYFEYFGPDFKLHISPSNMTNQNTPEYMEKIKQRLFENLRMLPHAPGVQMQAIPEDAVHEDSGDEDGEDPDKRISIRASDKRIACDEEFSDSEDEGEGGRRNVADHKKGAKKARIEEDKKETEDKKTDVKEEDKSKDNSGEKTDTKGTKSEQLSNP
Procedure: as §1, §2, §3, §4, §5

T1 sequence (O15379 whole entry): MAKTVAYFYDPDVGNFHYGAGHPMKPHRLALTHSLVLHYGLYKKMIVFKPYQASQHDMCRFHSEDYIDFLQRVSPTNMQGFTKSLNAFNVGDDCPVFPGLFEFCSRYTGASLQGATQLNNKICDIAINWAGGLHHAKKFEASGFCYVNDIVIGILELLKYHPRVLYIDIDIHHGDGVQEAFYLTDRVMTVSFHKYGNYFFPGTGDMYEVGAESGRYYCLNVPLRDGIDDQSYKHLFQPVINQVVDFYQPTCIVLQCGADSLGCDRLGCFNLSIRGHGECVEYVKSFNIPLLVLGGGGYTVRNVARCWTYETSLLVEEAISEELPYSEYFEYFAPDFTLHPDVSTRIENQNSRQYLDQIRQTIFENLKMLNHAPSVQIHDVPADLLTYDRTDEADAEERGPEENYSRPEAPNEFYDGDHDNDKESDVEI
T1 sequence (Q9Y618 1-899 partner limits assumed): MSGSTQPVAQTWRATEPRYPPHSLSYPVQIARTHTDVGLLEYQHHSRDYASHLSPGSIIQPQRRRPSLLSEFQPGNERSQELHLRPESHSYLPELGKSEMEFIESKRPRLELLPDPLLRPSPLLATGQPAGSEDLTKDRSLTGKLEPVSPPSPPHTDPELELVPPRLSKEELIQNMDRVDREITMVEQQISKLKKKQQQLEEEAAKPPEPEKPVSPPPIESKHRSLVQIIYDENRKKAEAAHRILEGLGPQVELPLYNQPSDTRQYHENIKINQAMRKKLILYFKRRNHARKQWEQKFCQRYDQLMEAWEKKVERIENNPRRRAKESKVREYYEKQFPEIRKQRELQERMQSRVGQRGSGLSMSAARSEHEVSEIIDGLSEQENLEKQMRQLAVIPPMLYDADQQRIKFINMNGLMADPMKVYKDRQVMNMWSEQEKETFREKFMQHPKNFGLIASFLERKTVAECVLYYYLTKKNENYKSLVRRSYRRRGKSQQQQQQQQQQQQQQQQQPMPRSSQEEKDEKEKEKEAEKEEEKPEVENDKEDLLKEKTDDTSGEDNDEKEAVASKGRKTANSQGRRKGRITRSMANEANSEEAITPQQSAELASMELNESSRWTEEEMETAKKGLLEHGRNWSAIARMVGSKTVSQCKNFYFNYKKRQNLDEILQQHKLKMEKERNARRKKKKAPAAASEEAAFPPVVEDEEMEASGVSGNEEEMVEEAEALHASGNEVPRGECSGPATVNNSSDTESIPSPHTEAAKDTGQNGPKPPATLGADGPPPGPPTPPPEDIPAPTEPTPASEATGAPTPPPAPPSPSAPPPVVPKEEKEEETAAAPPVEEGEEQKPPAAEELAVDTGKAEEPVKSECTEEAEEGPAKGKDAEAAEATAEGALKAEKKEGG

Row | SMILES | IC50 [1] [µM] | IC50 (HDAC6) [µM] | IC50 (Recombinant human HDAC8) [µM] | IC50 (Recombinant human HDAC1) [µM] | IC50 (Recombinant human HDAC2) [µM]
1 | CCC(=O)CCCCC[C@H](NC(=O)[C@H]1CC12CCN(C)CC2)c1ncc(-c2ccc(-c3ccc(C4CC4)nc3)cc2)o1 [Compound 143] | 0.032 | 3.66 | 13.1 | 0.0651 | 0.207
2 | CCC(=O)CCCCC[C@H](NC(=O)C1=NOC2(CCN(C)CC2)C1)c1ncc(-c2cc3ccc(=O)n(C)c3cc2OC)o1 [Compound 193] | 0.00181 | > 0.9 | > 0.9 | 0.00301 | 0.0109
3 | CCC(=O)CCCCC[C@H](NC(=O)C1=NOC2(CCN(CC)CC2)C1)c1ncc(-c2cc3ccc(C)nc3cc2OC)[nH]1 [Compound 207] | 0.00036 | 1.35 | 1.59 | 0.00024 | 0.0021
4 | CCC(=O)CCCCC[C@H](NC(=O)C1=NOC2(CCN(C)CC2)C1)c1ncc(-c2cc3ccncc3nc2OC)o1 [Compound 216] | 0.0135 | 0.786 | > 0.9 | 0.00711 | 0.0348
5 | CCC(=O)CCCCC[C@H](NC(=O)[C@@]1(C)CC12CCN(C(C)C)CC2)c1ncc(-c2ccc3nc(C)ccc3c2)[nH]1 (single isomer, unassigned) [Compound 151, (1S or 1R)-1-methyl-6-(1-methylethyl)-N-{(1S)-1-[5-(2-methylquinolin-6-yl)-1H-imidazol-2-yl]-7-oxononyl}-6-azaspiro[2.5]octane-1-carboxamide] | 0.00394 | 5.82 | 3.18 | 0.00574 | 0.0218
6 | CCC(=O)CCCCC[C@H](N)c1ncc(-c2ccc3nc(C)ccc3c2)[nH]1 [Compound 178] | 0.0549 | > 45 | 3.26 | 0.107 | 0.386
7 | CCC(=O)CCCCC[C@H](NC(=O)[C@H]1CC12CCN(C)CC2)c1ncc(-c2ccc3nc(N(C)C)ccc3c2)[nH]1 [Compound 66, (1S)—N-[(1S)-1-{5-[2-(dimethylamino)quinolin-6-yl]-1H-imidazol-2-yl}-7-oxononyl]-6-methyl-6-azaspiro[2.5]octane-1-carboxamide] | 0.167 | > 0.45 | > 1.5 | 0.147 | > 0.9
8 | CCC(=O)CCCCC[C@H](NC(=O)[C@H]1CC12CCN(CC)CC2)c1ncc(-c2ccc3c(=O)n(C4CC4)ccc3c2)o1 [Compound 153] | 0.00614 | 10.4 | > 15 | 0.00544 | 0.0135
9 | CCC(=O)CCCCC[C@H](NC(=O)[C@H]1CC12CCN(C)CC2)c1ncc(-c2ccc3nc(C4CC4)oc3c2)[nH]1 [Compound 160] | 0.00275 | 10.4 | 16.8 | 0.00189 | 0.0121
